The record followed here is patent US12552834B2, “Selective MENA binding peptides” (MASSACHUSETTS INSTITUTE OF TECHNOLOGY, priority 2021, dated 2026).

Assay [1] concerns MV^D7shEVL cells expressing GFP-ENAH, GFP-EVL or GFP-VASP. In words: Live-cell imaging of PCARE constructs co-expressed with GFP-tagged Ena/VASP paralogs. The assay is classed as cell-based, mice. The text has this: MV^D7 are embryonic fibroblasts derived from Enah^−/− Vasp^−/− mice, with low Evl expression (Auerbach 2003, Damiano-Guercio 2020). As Ena/VASP family members are known to heterotetramerize (Riquelme 2015), we used an shRNA against Evl to provide a clean background (average knockdown of MV^D7shEVL versus MV^D7 42.8+/−1.8% by qPCR, 3 biological replicates).
Together, these findings indicate that PCARE interacts specifically with ENAH and is capable of recruiting ENAH away from its normal functional sites. […]
Cells were imaged on a Ti-E inverted microscope (Nikon), with a 100× Apo TIRF 1.49 NA objective (Nikon) and an ORCA-Flash 4.0 V2 CMOS camera (Hamamatsu). For focal adhesion assessment, cells were imaged with total internal reflection fluorescence (TIRF) microscopy. To increase the depth of imaging for examination of mitochondrial localization, standard widefield fluorescence microscopy was used. Focal adhesion quantification was performed as previously described (Puleo 2019). […] Focal adhesion area was quantified by measuring the paxillin area of each cell within the whole cell area, or by examining individual focal adhesions. […]

The target in the next assay is T1, ENAH EVH1 domain (Homo sapiens, UniProt Q8N8S7).
T1 construct: places a 6×-His and TEV cleavage tag N-terminal to the EVH1 domain; 6×-His + TEV cleavage site (N, cleaved yes); made in house; host or cells: E. coli Rosetta2(DE3)
In words: Biolayer interferometry (BLI), SUMO-peptide fusions binding monomeric ENAH EVH1 domain WT. As to the method: All BLI experiments were performed with 2 replicates on an Octet Red96 instrument (ForteBio). […] The loaded tips were immersed in a solution of ENAH EVH1 domain at a relevant dilution series in BLI buffer at an orbital shake speed of 1000 rpm and run until the binding signal plateaued. ENAH-bound tips were subsequently placed into BLI buffer only for dissociation and run until the binding signal plateaued. KD values were obtained through steady state analysis. […] The association phases were then fit to a one-phase binding model in Prism and the equilibrium steady-state binding signal values from that fit were plotted against ENAH concentration and fit to a single-site specific binding model in Prism to obtain dissociation constants. Errors reported are the standard deviation of two replicates.
Monomeric ENAH, EVL, or VASP EVH1 domains for use in BLI and ITC experiments, or ENAH EVH1-peptide fusions for crystallography was cloned into a pMCSG7 vector (gift from Frank Gertler, MIT), which places a 6×-His and TEV cleavage tag N-terminal to the EVH1 domain. These constructs were transformed into Rosetta2(DE3) cells and grown in 2×YT media supplemented with 100 μg/mL ampicillin. Cells were grown while shaking at 37° C. to an O.D. 600 of 0.5-0.7, and then cooled on ice for at least 20 minutes. They were then induced with 0.5 mM IPTG and grown while shaking at 18° C. overnight. Induced cultures were resuspended in 25 mL of wash buffer (20 mM Hepes pH 7.6, 500 mM NaCl, 20 mM imidazole) and frozen at −80° C. overnight. The next day, cultures were sonicated, spun down, and applied to Ni-NTA acid agarose resin equilibrated with wash buffer, and washed as described above. Samples were eluted in 10 mL elution buffer (20 mM Hepes pH 7.6, 500 mM NaCl, […]). TEV protease was added to the elution at a ratio of 1 mg TEV:50 mg tagged protein along with 1 mM DTT. This mixture was dialyzed against TEV cleavage buffer (50 mM Hepes pH 8.0, 300 mM NaCl, 5 mM DTT, 1 mM EDTA) at 4° C. overnight and then applied over Ni-NTA acid agarose resin equilibrated with wash buffer. The column was washed with 2×8 mL of wash buffer, and the resulting flow-through and washes were pooled, concentrated, and applied to an S75 26/60 column equilibrated in gel filtration buffer (20 mM Hepes pH 7.6, 150 mM NaCl, 1 mM DTT, 1% glycerol). Purity was verified by SDS-PAGE and combined fractions were concentrated and flash frozen at −80° C.
Rosetta2(DE3) cells (Novagen) were transformed with pDW363 vector encoding 6×-His-SUMO-peptide fusions and grown in 20 mL of LB+100 μg/mL Ampicillin+0.050 mM D-(+)-Biotin dissolved in DMSO for in vivo biotinylation. Cells were grown to an OD of 0.5-0.7 with 1 mM IPTG and induced for 4-6 hours at 37° C. Pellets were spun down and frozen and −80° C. for at least 2 hours. These pellets were then thawed and resuspended in B-PER reagent (ThermoFisher) at 4 mL/gram of pellet with 0.2 mM PMSF. This suspension was shaken at 25° C. for 10-15 minutes, and then spun down at 15,000 g for 10 minutes. The supernatant was applied to 250 μL of Ni-NTA acid agarose resin equilibrated in 20 mM Tris pH 8.0, 500 mM NaCl, 20 mM Imidazole (Buffer A), and then washed 3 times with 1 mL of this buffer. Peptides were eluted in 1.8 mL of 20 mM Tris pH 8.0, 500 mM NaCl, 300 mM imidazole to use in BLI assays.
For orientation: Biolayer interferometry detects binding as a change in optical thickness at a sensor tip.

The test system of a further assay is VASP or EVL EVH1 domains. In words: BLI, paralog selectivity: ENAH versus VASP or EVL EVH1 domains. The assay is classed as binding. As to the method: Next, we examined whether residues flanking FP4 (SEQ ID NO:46) SLiMs impact paralog specificity.
All BLI experiments were performed with 2 replicates on an Octet Red96 instrument (ForteBio). Biotinylated, 6×-His-Sumo-peptide fusions purified in small scale were diluted into BLI buffer (PBS pH 7.4, 1% BSA, 0.1% Tween-20, 1 mM DTT) and immobilized onto streptavidin-coated tips (ForteBio) until loading reached a response level between 0.5-0.6 nm. The loaded tips were immersed in a solution of ENAH EVH1 domain at a relevant dilution series in BLI buffer at an orbital shake speed of 1000 rpm and run until the binding signal plateaued. ENAH-bound tips were subsequently placed into BLI buffer only for dissociation and run until the binding signal plateaued. KD values were obtained through steady state analysis. Briefly, the data were corrected for background by subtracting the signal obtained when doing the same experiment using a biotinylated, 6×-His Sumo instead of an immobilized ENAH-binding peptide. The association phases were then fit to a one-phase binding model in Prism and the equilibrium steady-state binding signal values from that fit were plotted against ENAH concentration and fit to a single-site specific binding model in Prism to obtain dissociation constants. Errors reported are the standard deviation of two replicates. […]

Assay [2] relates to EVL Y63C, I26A and VASP W89Y, L15V. In words: BLI, binding to EVL and VASP hydrophobic core mutants.

Where no end group is shown, it is not given here. disordered linker = not defined here

T1 sequence (Q8N8S7 with tags, fused parts or gaps): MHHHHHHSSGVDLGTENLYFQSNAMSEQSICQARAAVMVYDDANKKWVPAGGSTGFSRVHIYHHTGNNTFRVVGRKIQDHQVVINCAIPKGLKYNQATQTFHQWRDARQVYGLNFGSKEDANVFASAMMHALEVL

Regarding “mRuby2-PCARE: PCARE^822-848 tagged at the N-terminus with mRuby2 and a disordered linker, lentiviral expression ({mRuby2-disordered linker}-EMEGNLEHLPPPPMEVLMDKSFASLES; reading uncertain; UniProt A6NGG8 822-848, looked up, fragment)”, the “localization of the PCARE construct” value in assay [1] (all conditions except co-expression with ENAH (GFP, ΔEVH1-ENAH, EVL, VASP)) was “diffuse cytoplasmic localization”; in assay [1] (co-expressed with GFP-ENAH), “moderately recruited to focal adhesions”.
For the compound `CSCC[C@H](NC(=O)[C@H](CC(C)C)NC(=O)[C@@H](NC(=O)[C@H](CCC(=O)O)NC(=O)[C@H](CCSC)NC(=O)[C@@H]1CCCN1C(=O)[C@@H]1CCCN1C(=O)[C@@H]1CCCN1C(=O)[C@@H]1CCCN1C(=O)[C@H](CC(C)C)NC(=O)[C@H](Cc1c[nH]cn1)NC(=O)[C@H](CCC(=O)O)NC(=O)[C@H](CC(C)C)NC(=O)[C@@H](N)CC(N)=O)C(C)C)C(=O)N[C@@H](CC(=O)O)C(=O)N[C@@H](CCCCN)C(=O)N[C@@H](CO)C(=O)N[C@@H](Cc1ccccc1)C(=O)N[C@@H](C)C(=O)N[C@@H](CO)C(=O)N[C@@H](CC(C)C)C(=O)N[C@@H](CCC(=O)O)C(=O)N[C@@H](CO)C(=O)NCC(=O)N[C@@H](CO)C(=O)NCC(=O)N[C@@H](CO)C(=O)N1CCC[C@H]1C(=O)N1CCC[C@H]1C(=O)N1CCC[C@H]1C(=O)N1CCC[C@H]1C(=O)N1CCC[C@H]1C(=O)N[C@@H](Cc1ccccc1)C(=O)O` [PCARE-Dual], at ENAH EVH1 domain, the “tighter binding than PCARE B” value is reported as ~7 fold. On ENAH EVH1 domain (BLI off-rate), the “slower dissociation than dual-motif peptide LPP” value is listed as ~100 fold. Besides, in the assay with VASP or EVL EVH1 domains, the “preference / selectivity for ENAH over VASP or EVL EVH1 domains” value is 400-600 fold.
For `CSCC[C@H](NC(=O)[C@H](CC(C)C)NC(=O)[C@@H](NC(=O)[C@H](CCC(=O)O)NC(=O)[C@H](CCSC)NC(=O)[C@@H]1CCCN1C(=O)[C@@H]1CCCN1C(=O)[C@@H]1CCCN1C(=O)[C@@H]1CCCN1C(=O)[C@H](CC(C)C)NC(=O)[C@H](Cc1c[nH]cn1)NC(=O)[C@H](CCC(=O)O)NC(=O)[C@H](CC(C)C)NC(=O)[C@@H](N)CC(N)=O)C(C)C)C(=O)N[C@@H](CC(=O)O)C(=O)N[C@@H](CCCCN)C(=O)N[C@@H](CO)C(=O)N[C@@H](Cc1ccccc1)C(=O)N[C@@H](C)C(=O)N[C@@H](CO)C(=O)N[C@@H](CC(C)C)C(=O)N[C@@H](CCC(=O)O)C(=O)N[C@@H](CO)C(=O)O` [PCARE B], the “binding to EVL Y63C, I26A and VASP W89Y, L15V, in words” value in assay [2] is “not sufficient to confer high affinity of binding”.
